Measured values published in patent publication US8796253B2, “Heteroaryl substituted pyrazole derivatives useful for treating hyper-proliferative disorders and diseases associated with angiogenesis” (Bayer Intellectual Property GmbH, priority 2007, dated 2014).

These compounds were tested on HCT-116 cells stably transfected with a Luciferase reporter gene under the control of HIF-responsive element (assay: HIF-Luciferase Assay). Details: Homo sapiens, HCT-116, HIF-Luciferase Assay, HCT-116 reporter cells, overnight at 1% oxygen; group >10, unit inferred.
Format: cell-based
Method: HCT-116 cells stably transfected with a Luciferase reporter gene under the control of HIF-responsive element were plated in white 96- or 384-well plates at 30,000 or 5,000 cells/well, respectively, in 50 μL/well media (RPMI with 10% fetal bovine serum and 100 μg/mL Hygromycin). Cells were incubated overnight at 37° C. in a humidified incubator containing 5% CO2 under normal oxygen. The next day test compounds were added to the wells at various concentrations (0-10 μM, 0.1% final DMSO concentration) and placed in a hypoxic chamber overnight at 1% oxygen. Following the exposure to hypoxic conditions, 50 μL/well of Bright Glo reagent (Promega, Wisconsin, USA) was added to the wells and luminescence was measured after 5 min. Cells incubated under normal oxygen levels were used as background control. […] Compounds that have IC50 values between 1 μM and 10 μM include those of Examples 8, 16, 38, 39, 40, 41, 42, 43, 47, 48, 53, 54, 56, 57, 66, 69, and 72.

IC50 [nM] | Compound
> 10000 | Cc1ccc(Cn2nc(-c3nc4ccc(N5CCN(C)CC5)cc4[nH]3)cc2C)cc1 [Example 50, 2-[5-methyl-1-(4-methylbenzyl)-1H-pyrazol-3-yl]-6-(4-methylpiperazin-1-yl)-1H-benzimidazole]
> 10000 | Cc1ccc(Cn2nc(C3=NC(c4ccc(C(C)(C)C)cc4)CO3)cc2C)cc1 (stereo not drawn) [Example 70, 4-(4-tert-butylphenyl)-2-[5-methyl-1-(4-methylbenzyl)-1H-pyrazol-3-yl]-4,5-dihydro-1,3-oxazole]
> 10000 | Cc1ccc(Cn2nc(C3=NC(C(C)C)CO3)cc2C)cc1 (stereo not drawn) [Example 71, 4-isopropyl-2-[5-methyl-1-(4-methylbenzyl)-1H-pyrazol-3-yl]-4,5-dihydro-1,3-oxazole]

Same assay, conditions: Homo sapiens, HCT-116, HIF-Luciferase Assay, HCT-116 reporter cells, overnight at 1% oxygen; individual values

Compound | IC50 [nM]
Cc1ccc(Cn2nc(-c3nc(-c4ccc(-c5ccccc5)cc4)c[nH]3)cc2C)cc1 [Example 67, 3-(4-biphenyl-4-yl-1H-imidazol-2-yl)-5-methyl-1-(4-methylbenzyl)-1H-pyrazole] | 8
Cc1ccc(Cn2nc(-c3nc(-c4ccc(C5CCCCC5)cc4)c[nH]3)cc2C)cc1 [Example 68, 3-[4-(4-cyclohexylphenyl)-1H-imidazol-2-yl]-5-methyl-1-(4-methylbenzyl)-1H-pyrazole] | 6

The remaining lines, values ahead:

IC50 [nM] | Compound
5 | Cc1ccc(Cn2nc(-c3nc4ccc(-c5ccc(F)cc5)cc4[nH]3)cc2C)cc1 [Example 59, 6-(4-Fluorophenyl)-2-[5-methyl-1-(4-methylbenzyl)-1H-pyrazol-3-yl]-1H-benzimidazole]
3 | Cc1ccc(Cn2nc(-c3nc4ccc(-c5ccc(Cl)cc5)cc4[nH]3)cc2C)cc1 [Example 64, 6-(4-chlorophenyl)-2-[5-methyl-1-(4-methylbenzyl)-1H-pyrazol-3-yl]-1H-benzimidazole]

Same assay, conditions: Homo sapiens, HCT-116, HIF-Luciferase Assay, HCT-116 reporter cells, overnight at 1% oxygen; potency groups

Compound | IC50 [nM]
Cc1ccc(Cn2nc(-c3nc4ccc(C(F)(F)F)cc4[nH]3)cc2C)cc1 [Example 44, 2-[5-methyl-1-(4-methylbenzyl)-1H-pyrazol-3-yl]-6-(trifluoromethyl)-1H-benzimidazole] | ≤ 1000
Cc1ccc(Cn2nc(-c3nc4cc5cn[nH]c5cc4[nH]3)cc2C)cc1 [Example 48, 6-[5-methyl-1-(4-methylbenzyl)-1H-pyrazol-3-yl]-1,7-dihydroimidazo[4,5-f]indazole] | 1000 to 10000
Cc1ccc(Cn2nc(-c3nc4ccc(N5CCCCC5)cc4[nH]3)cc2C)cc1 [Example 49, 2-[5-methyl-1-(4-methylbenzyl)-1H-pyrazol-3-yl]-6-piperidin-1-yl-1H-benzimidazole] | ≤ 1000
Cc1ccc(Cn2nc(-c3nc4ccc(C5CCCCC5)cc4[nH]3)cc2C)cc1 [Example 51, 6-cyclohexyl-2-[5-methyl-1-(4-methylbenzyl)-1H-pyrazol-3-yl]-1H-benzimidazole] | ≤ 1000
Cc1ccc(Cn2nc(-c3nc4cc5oc6ccccc6c5cc4[nH]3)cc2C)cc1 [Example 52, 2-[5-methyl-1-(4-methylbenzyl)-1H-pyrazol-3-yl]-1H-[1]benzofuro[2,3-f]benzimidazole] | ≤ 1000
Cc1ccc(Cn2nc(-c3nc4ccc(N5CCOCC5)cc4[nH]3)cc2C)cc1 [Example 53, 2-[5-methyl-1-(4-methylbenzyl)-1H-pyrazol-3-yl]-6-morpholin-4-yl-1H-benzimidazole] | 1000 to 10000
Cc1ccc(Cn2nc(-c3nc4ccc(C#N)cc4[nH]3)cc2C)cc1 [Example 54, 2-[5-methyl-1-(4-methylbenzyl)-1H-pyrazol-3-yl]-1H-benzimidazole-6-carbonitrile] | 1000 to 10000
Cc1ccc(Cn2nc(-c3nc4cc5c(cc4[nH]3)OC(F)(F)O5)cc2C)cc1 [Example 55, 2,2-difluoro-6-[5-methyl-1-(4-methylbenzyl)-1H-pyrazol-3-yl]-5H-[1,3]dioxolo[4,5-f]benzimidazole] | ≤ 1000
Cc1ccc(Cn2nc(-c3nc4cc(Cl)c(F)cc4[nH]3)cc2C)cc1 [Example 56, 5-chloro-6-fluoro-2-[5-methyl-1-(4-methylbenzyl)-1H-pyrazol-3-yl]-1H-benzimidazole] | 1000 to 10000
Cc1ccc(Cn2nc(-c3nc4c(C)cc(Br)cc4[nH]3)cc2C)cc1 [Example 57, 6-bromo-4-methyl-2-[5-methyl-1-(4-methylbenzyl)-1H-pyrazol-3-yl]-1H-benzimidazole] | 1000 to 10000
Cc1ccc(Cn2nc(-c3nc4ccc(OC(F)(F)F)cc4[nH]3)cc2C)cc1 [Example 58, 2-[5-methyl-1-(4-methylbenzyl)-1H-pyrazol-3-yl]-6-(trifluoromethoxy)-1H-benzimidazole] | ≤ 1000
Cc1ccc(Cn2nc(-c3nc(-c4ccc(OC(F)(F)F)cc4)c[nH]3)cc2C)cc1 [Example 65, 5-Methyl-1-(4-methylbenzyl)-3-{4-[4-(trifluoromethoxy)phenyl]-1H-imidazol-2-yl}-1H-pyrazole] | ≤ 1000
Cc1ccc(Cn2nc(-c3nc(-c4ccccc4)c(-c4ccccc4)[nH]3)cc2C)cc1 [Example 66, 3-(4,5-diphenyl-1H-imidazol-2-yl)-5-methyl-1-(4-methylbenzyl)-1H-pyrazole] | 1000 to 10000
Cc1ccc(Cn2nc(-c3nc(-c4ccc(-c5ccccc5)cc4)c[nH]3)cc2C)cc1 [Example 67, 3-(4-biphenyl-4-yl-1H-imidazol-2-yl)-5-methyl-1-(4-methylbenzyl)-1H-pyrazole] | ≤ 1000
Cc1ccc(Cn2nc(-c3nc(-c4ccc(C5CCCCC5)cc4)c[nH]3)cc2C)cc1 [Example 68, 3-[4-(4-cyclohexylphenyl)-1H-imidazol-2-yl]-5-methyl-1-(4-methylbenzyl)-1H-pyrazole] | ≤ 1000
Cc1ccc(Cn2nc(C3=NC(c4ccccc4)CO3)cc2C)cc1 (stereo not drawn) [Example 69, 2-[5-Methyl-1-(4-methylbenzyl)-1H-pyrazol-3-yl]-4-phenyl-4,5-dihydro-1,3-oxazole] | 1000 to 10000
Cc1ccc(Cn2nc(C3=NC(Cc4ccc(Cl)cc4)CO3)cc2C)cc1 (stereo not drawn) [Example 72, 4-(4-chlorobenzyl)-2-[5-methyl-1-(4-methylbenzyl)-1H-pyrazol-3-yl]-4,5-dihydro-1,3-oxazole] | 1000 to 10000

More lines, now with the values ahead:

IC50 [nM] | Compound
≤ 1000 | Cc1ccc(Cn2nc(-c3nc4ccc(-c5ccccc5)cc4[nH]3)cc2C)cc1 [Example 45, 2-[5-methyl-1-(4-methylbenzyl)-1H-pyrazol-3-yl]-6-phenyl-1H-benzimidazole]
≤ 1000 | Cc1ccc(Cn2nc(-c3nc4ccc(C(=O)c5ccccc5)cc4[nH]3)cc2C)cc1 [Example 46, {2-[5-methyl-1-(4-methylbenzyl)-1H-pyrazol-3-yl]-1H-benzimidazol-6-yl}(phenyl)methanone]
1000 to 10000 | Cc1ccc(Cn2nc(-c3nc4cc5ccccc5cc4[nH]3)cc2C)cc1 [Example 47, 2-[5-methyl-1-(4-methylbenzyl)-1H-pyrazol-3-yl]-1H-naphtho[2,3-d]imidazole]
≤ 1000 | Cc1ccc(Cn2nc(-c3nc4ccc(-c5ccc(F)cc5)cc4[nH]3)cc2C)cc1 [Example 59, 6-(4-Fluorophenyl)-2-[5-methyl-1-(4-methylbenzyl)-1H-pyrazol-3-yl]-1H-benzimidazole]
≤ 1000 | Cc1ccc(Cn2nc(-c3nc4ccc(-c5ccccc5F)cc4[nH]3)cc2C)cc1 [Example 60, 6-(2-fluorophenyl)-2-[5-methyl-1-(4-methylbenzyl)-1H-pyrazol-3-yl]-1H-benzimidazole]
≤ 1000 | Cc1ccc(Cn2nc(-c3nc4ccc(-c5cccc(F)c5)cc4[nH]3)cc2C)cc1 [Example 61, 6-(3-fluorophenyl)-2-[5-methyl-1-(4-methylbenzyl)-1H-pyrazol-3-yl]-1H-benzimidazole]
≤ 1000 | Cc1ccc(Cn2nc(-c3nc4ccc(-c5ccccc5Cl)cc4[nH]3)cc2C)cc1 [Example 62, 6-(2-chlorophenyl)-2-[5-methyl-1-(4-methylbenzyl)-1H-pyrazol-3-yl]-1H-benzimidazole]
≤ 1000 | Cc1ccc(Cn2nc(-c3nc4ccc(-c5cccc(Cl)c5)cc4[nH]3)cc2C)cc1 [Example 63, 6-(3-chlorophenyl)-2-[5-methyl-1-(4-methylbenzyl)-1H-pyrazol-3-yl]-1H-benzimidazole]
≤ 1000 | Cc1ccc(Cn2nc(-c3nc4ccc(-c5ccc(Cl)cc5)cc4[nH]3)cc2C)cc1 [Example 64, 6-(4-chlorophenyl)-2-[5-methyl-1-(4-methylbenzyl)-1H-pyrazol-3-yl]-1H-benzimidazole]
